We go through 58 compounds from ChEMBL document CHEMBL1156842, “Discovery of 5-aryloxy-2,4-thiazolidinediones as potent GPR40 agonists” (Bioorg Med Chem Lett, 2010).

As a reminder, the clearance is the rate of elimination divided by the concentration. For orientation: Tmax means the time at which the peak concentration occurs. The Cmax is the peak of the concentration-time curve. As a reminder, the half-life is the time needed for the level to fall by half in the phase considered. As a reminder, the bioavailability is the share of a dose that reaches the circulation, judged against a reference dose that is usually intravenous.

Activity calls are given as the source filed them.

Data set [1] concerns the target T1, Free fatty acid receptor 1 (Homo sapiens, UniProt O14842). Nature of the data set: Agonist activity at human GPR40 by FLIPR assay in presence of 1% BSA. The data set is classed as functional.
In data set [2] the target is T1, Free fatty acid receptor 1. Nature of the data set: Agonist activity at human GPR40 at 40 uM by FLIPR assay in presence of 1% BSA. Format: functional.
Data set [3] concerns Mus musculus. Nature of the data set: Reduction in glucose excursion in GPR40-/- lean mouse assessed as inhibition of glucose AUC at 30 mg/kg, po pretreated 1 hr before dextrose challenge by intraperitoneal glucose tolerance test. Format: functional, organism-based. Also on record: dose 30 mg/kg.
The nature of data set [4]: Plasma concentration in lean mouse at 30 mg/kg, po pretreated 1 hr before dextrose challenge measured after 2 hrs. The data set is classed as ADME, organism-based. Also on record: dose 30 mg/kg, route oral.
The nature of data set [5]: Clearance in mouse at 2 mg/kg. Format: ADME, organism-based. Also on record: dose 2 mg/kg. Particulars: in vivo.
The nature of data set [6]: Tmax in mouse at 2 mg/kg. The data set is classed as ADME, organism-based. Also on record: dose 2 mg/kg. Particulars: in vivo.
Data set [7] in a line: Cmax in mouse at 2 mg/kg. The data set is classed as ADME, organism-based. Also on record: dose 2 mg/kg. Particulars: in vivo.
The test system of data set [8] is Mus musculus. Nature of the data set: Reduction in glucose excursion in po dosed lean mouse pretreated 1 hr before dextrose challenge by intraperitoneal glucose tolerance test. Format: functional, organism-based.
Data set [9] can be described thus: Half life in mouse at 2 mg/kg. The settings on record: in vivo. Format: ADME, organism-based. Also on record: dose 2 mg/kg.
In data set [10] the test system is Mus musculus. Nature of the data set: Reduction in glucose excursion in lean mouse assessed as inhibition of glucose AUC at 30 mg/kg, po pretreated 1 hr before dextrose challenge by intraperitoneal glucose tolerance test. The data set is classed as functional. Also on record: scale not given: the % may be the effect or the level left.
Data set [11] is described as follows: Oral bioavailability in mouse at 2 mg/kg. Format: ADME, organism-based. Particulars: in vivo.
The test system of data set [12] is Mus musculus. Nature of the data set: Reduction in glucose excursion in lean mouse at 3 to 100 mg/kg, po pretreated 1 hr before dextrose challenge by intraperitoneal glucose tolerance test.

T1 sequence (O14842 whole entry): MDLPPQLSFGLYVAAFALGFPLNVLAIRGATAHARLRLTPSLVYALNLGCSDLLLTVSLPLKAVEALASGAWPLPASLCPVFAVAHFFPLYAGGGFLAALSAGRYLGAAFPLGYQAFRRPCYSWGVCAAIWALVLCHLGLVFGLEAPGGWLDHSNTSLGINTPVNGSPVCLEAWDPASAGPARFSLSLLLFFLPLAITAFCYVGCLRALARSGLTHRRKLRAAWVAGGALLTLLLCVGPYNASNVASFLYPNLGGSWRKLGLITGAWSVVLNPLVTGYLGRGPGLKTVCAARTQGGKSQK

Regarding `O=C1CC(Cc2ccc(Oc3ccc(Cl)cc3Cl)cc2)C(=O)N1` (stereo not drawn), in data set [1] (read-out: EC50), the EC50 stood at 6450 nM.

Regarding `O=C1NC(=O)C(Cc2ccc(OCc3ccccc3)cc2)S1` (stereo not drawn), in data set [1] (read-out: EC50), the EC50 stood at 6180 nM.

Turning to `O=C1NC(=O)C(Cc2ccc(/C=C/c3ccccc3)cc2)S1` (stereo not drawn), in [1] (read-out: EC50), the EC50 was 2090 nM.

Take `O=C1COC(Cc2ccc(Oc3ccc(Cl)cc3Cl)cc2)C(=O)N1` (stereo not drawn): the Activity in data set [2] was determined as 23%.

Consider `O=C1NC(=O)C(Cc2ccc(-c3ccccc3)cc2)S1` (stereo not drawn), for which, in data set [1] (read-out: EC50), the EC50 is 2220 nM.

Turning to `O=C1NC(=O)C(Cc2ccccc2Oc2ccccc2)S1` (stereo not drawn), the EC50 in data set [1] (read-out: EC50) came out at 11300 nM.

`O=C1NC(=O)C(Cc2ccc(Oc3ccc(F)cc3)cc2)S1` (stereo not drawn): in [1] (read-out: EC50), the EC50 was 480 nM.

Turning to `Cc1cc(Oc2ccc(CC3SC(=O)NC3=O)cc2)nc(C(F)(F)F)c1` (stereo not drawn), the EC50 in data set [1] (read-out: EC50) stood at 688 nM.

In the case of `Cc1cc(Oc2ncc(C(F)(F)F)cc2Cl)ccc1CC1SC(=O)NC1=O` (stereo not drawn), the outcome in [3] was inactive. Besides, the concentration at 2 h in data set [4] was found to be 37 µM. The clearance in data set [5] stood at 1.9 mL/min/kg. In data set [6], the Tmax was 3 h. Moreover, the EC50 in data set [1] (read-out: EC50) is 10 nM. Further, in [7], the Cmax stood at 1.4 µM. Besides, the Activity result in [8] is “Dose-dependent effect”; in data set [10], 73%. The same compound showed a half-life in data set [9] of 5.1 h. The compound also had a bioavailability in [11] of 100%. For the same compound, in [12], the outcome was Active.

Regarding `O=C1NC(=O)C(Cc2ccc(Oc3ccccc3)cc2)S1` (stereo not drawn), the EC50 in data set [1] (read-out: EC50) stood at 307 nM.

In the case of `O=C(O)CCc1ccc(NCc2cccc(Oc3ccccc3)c2)cc1` [GW9508], the EC50 in [1] (read-out: pEC50 (converted)) was 100 nM.

With `Cc1ccc(C)c(Oc2ccc(CC3SC(=O)NC3=O)cc2)c1` (stereo not drawn), the EC50 in data set [1] (read-out: EC50) was found to be 238 nM.

For the compound `O=C1NC(=O)C(Cc2ccc(Oc3ccc(C(F)(F)F)cc3Cl)c3ccccc23)S1` (stereo not drawn), the Activity in [2] worked out at 46%.

For `Cc1cc(C)cc(Oc2ccc(CC3SC(=O)NC3=O)cc2)c1` (stereo not drawn), the EC50 in [1] (read-out: EC50) was found to be 96 nM.

With `O=C1NC(=O)C(Cc2cccc(Oc3ccccc3)c2)S1` (stereo not drawn), the EC50 in [1] (read-out: EC50) was found to be 4700 nM.

As for `Cc1cccc(Oc2ccc(CC3SC(=O)NC3=O)cc2)c1` (stereo not drawn), in data set [1] (read-out: EC50), the EC50 was 203 nM.

With `COc1cc(Oc2ncc(C(F)(F)F)cc2Cl)ccc1CC1SC(=O)NC1=O` (stereo not drawn), the EC50 in data set [1] (read-out: EC50) amounted to 13800 nM.

As for `O=C1NC(=O)C(Cc2ccc(Oc3ccc(Cl)cc3Cl)cc2C(F)(F)F)S1` (stereo not drawn), the EC50 in data set [1] (read-out: EC50) was 88 nM.

Consider `O=C1NC(=O)C(Cc2ccc(Oc3cc4ccccc4cn3)cc2)S1` (stereo not drawn), for which the EC50 in [1] (read-out: EC50) came to 144 nM.

As to `O=C1NC(=O)C(Cc2ccc(Oc3cc(Cl)cc(Cl)c3)cc2)S1` (stereo not drawn), the EC50 in data set [1] (read-out: EC50) came out at 207 nM.

Regarding `O=C1NC(=O)C(Cc2ccc(Oc3ccc(Cl)cc3Cl)cc2)O1` (stereo not drawn), the EC50 in [1] (read-out: EC50) was determined as 4020 nM.

`O=C1NC(=O)C(Cc2ccc(Oc3ccc(C(F)(F)F)cn3)cc2)S1` (stereo not drawn): the EC50 in data set [1] (read-out: EC50) came to 558 nM.

As for `O=C1NC(=O)C(Cc2ccc(Oc3cccc(C(F)(F)F)n3)cc2)S1` (stereo not drawn), the EC50 in [1] (read-out: EC50) is 1630 nM.

As to `O=C1NC(=O)C(Cc2ccc(Oc3ncc(C(F)(F)F)cc3Cl)c3ccccc23)S1` (stereo not drawn), the EC50 in [1] (read-out: EC50) worked out at 23600 nM.

Regarding `Cc1ccccc1Oc1ccc(CC2SC(=O)NC2=O)cc1` (stereo not drawn), in [1] (read-out: EC50), the EC50 came out at 124 nM.

Consider `Cc1nc(-c2ccc(C(F)(F)F)cc2)sc1CNc1ccc(C2CC2C(=O)O)cc1` (stereo not drawn), for which, in data set [1] (read-out: pEC50 (converted)), the EC50 was 10 nM.

As to `O=C1NC(=O)C(Cc2ccc(Oc3ccc(C(F)(F)F)cc3Cl)cc2)S1` (stereo not drawn), the EC50 in data set [1] (read-out: EC50) is 78 nM.

In the case of `Cc1ccc(Oc2ccc(CC3SC(=O)NC3=O)cc2)c(C)c1` (stereo not drawn), in data set [1] (read-out: EC50), the EC50 amounted to 121 nM.

Consider `Cc1cc(C(F)(F)F)cc(Oc2ccc(CC3SC(=O)NC3=O)cc2)n1` (stereo not drawn), for which the EC50 in data set [1] (read-out: EC50) was determined as 218 nM.

For the compound `Cc1cccc(Oc2ccc(CC3SC(=O)NC3=O)cc2)c1C` (stereo not drawn), in data set [1] (read-out: EC50), the EC50 came out at 334 nM.

In the case of `CN1C(=O)NC(=O)C1Cc1ccc(Oc2ccc(Cl)cc2Cl)cc1` (stereo not drawn), the Activity in data set [2] came out at 2%.

Consider `O=C1NC(=O)C(Cc2ccc(Oc3ncc(C(F)(F)F)cc3Cl)cc2)S1` (stereo not drawn), for which, in data set [1] (read-out: EC50), the EC50 is 69 nM.

For `O=C1NC(=O)C(Cc2ccc(Oc3ncc(Cl)cc3Cl)cc2)S1` (stereo not drawn), the EC50 in data set [1] (read-out: EC50) worked out at 90 nM.

In the case of `O=C1NC(=O)C(Cc2ccc(Oc3ccc(Cl)cc3)cc2)S1` (stereo not drawn), the EC50 in data set [1] (read-out: EC50) is 240 nM.

As for `O=C1NC(=O)C(Cc2ccc(CCc3ccccc3)cc2)S1` (stereo not drawn), the EC50 in data set [1] (read-out: EC50) amounted to 1080 nM.

In the case of `Cc1cc(Oc2ncc(C(F)(F)F)cc2Cl)cc(C)c1CC1SC(=O)NC1=O` (stereo not drawn), the EC50 in data set [1] (read-out: EC50) was determined as 5450 nM.

In the case of `O=C1NC(=O)C(Cc2ccc(Oc3ncccc3C(F)(F)F)cc2)S1` (stereo not drawn), the EC50 in data set [1] (read-out: EC50) is 2290 nM.

`Cc1cccc(Oc2ccc(CC3SC(=O)NC3=O)cc2)n1` (stereo not drawn): the EC50 in data set [1] (read-out: EC50) came out at 2620 nM.

On to `O=C1NC(=O)C(Cc2ccc(C(=O)c3ccccc3)cc2)S1` (stereo not drawn), for which, in data set [1] (read-out: EC50), the EC50 is 5300 nM.

Take `O=C1NC(=O)C(Cc2ccc(Oc3ccc(Cl)cc3Cl)cc2)S1` (stereo not drawn): the EC50 in data set [1] (read-out: EC50) worked out at 101 nM.

`O=C1NC(=O)C(Cc2ccc(Oc3cccc4ccccc34)cc2)S1` (stereo not drawn): the EC50 in [1] (read-out: EC50) worked out at 135 nM.

On to `O=C1NC(=O)C(Cc2ccc(Oc3ccc(Cl)cn3)cc2)S1` (stereo not drawn), for which the EC50 in data set [1] (read-out: EC50) was 1870 nM.

`COc1cc(Oc2ccc(Cl)cc2Cl)ccc1CC1SC(=O)NC1=O` (stereo not drawn): in [1] (read-out: EC50), the EC50 stood at 1410 nM.

Take `O=C1CCC(Cc2ccc(Oc3ccc(Cl)cc3Cl)cc2)C(=O)N1` (stereo not drawn): the Activity in data set [2] is 6%.

Regarding `Cc1cc(Oc2ccc(C(F)(F)F)cc2Cl)ccc1CC1SC(=O)NC1=O` (stereo not drawn), the EC50 in data set [1] (read-out: EC50) came to 18 nM.

On to `O=C1NC(=O)C(Cc2ccc(Oc3ncc(Cl)cc3Cl)cc2Cl)S1` (stereo not drawn), for which the EC50 in data set [1] (read-out: EC50) was 63 nM.

`Cc1ccc(Oc2ccc(CC3SC(=O)NC3=O)cc2)cc1` (stereo not drawn): the EC50 in data set [1] (read-out: EC50) was determined as 547 nM.

Turning to `Cc1ccc(Oc2ccc(CC3SC(=O)NC3=O)cc2)cc1C` (stereo not drawn), the EC50 in data set [1] (read-out: EC50) came to 727 nM.

For `Cc1cc(Oc2ccc(CC3SC(=O)NC3=O)cc2)cc(C)c1C#N` (stereo not drawn), the EC50 in [1] (read-out: EC50) turned out to be 120 nM.

As to `O=C1NC(=O)C(Cc2ccc(Oc3cc(C(F)(F)F)ccn3)cc2)S1` (stereo not drawn), the EC50 in data set [1] (read-out: EC50) amounted to 237 nM.

On to `Cc1ccc(Oc2ccc(CC3SC(=O)NC3=O)cc2)nc1` (stereo not drawn), for which, in [1] (read-out: EC50), the EC50 worked out at 4470 nM.

With `O=C1NC(=O)C(Cc2ccc(Sc3ccccc3)cc2)S1` (stereo not drawn), in [1] (read-out: EC50), the EC50 turned out to be 5060 nM.

On to `O=C1NC(=O)C(Cc2ccc(Oc3ncc(C(F)(F)F)cc3Cl)cc2Cl)S1` (stereo not drawn), for which the EC50 in [1] (read-out: EC50) is 26 nM.

On to `O=C1NC(=O)C(Cc2ccc(Oc3ccccc3Cl)cc2)S1` (stereo not drawn), for which the EC50 in data set [1] (read-out: EC50) turned out to be 1190 nM.

Consider `Cc1ccnc(Oc2ccc(CC3SC(=O)NC3=O)cc2)c1` (stereo not drawn), for which, in [1] (read-out: EC50), the EC50 came to 4280 nM.

On to `O=C1NC(=O)C(Cc2ccc(Oc3cccc(Cl)c3)cc2)S1` (stereo not drawn), for which the EC50 in [1] (read-out: EC50) worked out at 318 nM.

For the compound `O=C1NC(=O)C(Cc2ccc(Cc3ccccc3)cc2)S1` (stereo not drawn), in data set [1] (read-out: EC50), the EC50 stood at 9280 nM.

For the compound `Cc1cccnc1Oc1ccc(CC2SC(=O)NC2=O)cc1` (stereo not drawn), in [1] (read-out: EC50), the EC50 came out at 1090 nM.
